How the values were obtained:
[1] = FKBP/FRB model system, FP labelling kinetics with or without rapamycin; type: biochemical; details: in combination with a FKPB/FRB sensor system; versus PEP1
Method: FIG. 13 Model system to test split HaloTag™ performance: Left: Scheme explaining the FKBP/FRB based model system. cpHaloΔ and the 9mer peptide are fused to FKBP and FRB, respectively, to render the split complementation and activity dependent on their rapamycin dependent interaction. Right: Labelling kinetics of the model system were followed via a fluorescence polarization assay in the presence or absence of rapamycin (Rap). Halo-TMR was used as substrate and each experiment was performed in triplicate.
FIG. 14 Impact of different flexible linkers in the FKBP/FRB model system: Labelling kinetics of split HaloTag™ fused to FKBP and FRB using different flexible linkers were observed via a fluorescence polarization assay in the presence or absence of rapamycin. Halo-TMR was used as substrate and each experiment was performed in triplicate.
The inventors further tested the performance of the split-HaloTag system of the invention for labelling protein-protein interactions in a simple model system. They used the strong interaction of the proteins FKBP and FRB, which is conditional on the presence of the small-molecule drug rapamycin. […] Different flexible linkers (1-3 times GGS) were placed between the interacting proteins (FKBP/FRP) and the split HaloTag™ fragments to assess the effect of linker length and to find well performing linker combinations (FIG. 14). […]

[2] = FP kinetic assay of calcium integrators (split integrator, CaProLa); type: biochemical; details: in combination with the calmodulin/M13 sensor system; versus PEP1
Method: FIG. 6 M13—cpHaloΔ9mer and 9mer—CaM linker length optimization: All combinations of split integrators composed of M13—(GGS)1-3—cpHaloΔ9mer and 9mer—(GGS)1-3—CaM were tested in an FP kinetic assay in the presence of calcium or EGTA.
FIG. 8 Performance of CaProLa constructs with different M13—CaM linkers: FP kinetics of different CaProLa constructs and the split integrator under four conditions: in the presence of calcium (red), in the absence of calcium (purple), in the absence of calcium but spiked with calcium after 1 h (cyan), in the presence of calcium, followed by an EGTA spike to stop the reaction, followed by a calcium spike to restart the reaction (green). Small arrows indicate the EGTA and calcium spikes. Curves in the presence of calcium (red) were fitted to a second order reaction rate equation to determine the rate constants. All experiments were performed in triplicates. GGTGGS: SEQ ID NO 027.
FIG. 11 Performance of second generation CaProLa constructs: A fluorescence polarization kinetic assays with Halo-TMR of CaProLa 2.1-2.3 were performed under four conditions: in the presence of calcium (red), in the absence of calcium (purple), in the absence of calcium but spiked with calcium after 1 h (cyan), in the presence of calcium, followed by an EGTA spike to stop the reaction, followed by a calcium spike (green). Small arrows indicate the EGTA and calcium spikes. […]

Substance: PEP2: 10mer Peptide 145-ARETFQAFRT-154, second partial effector sequence with extra C-terminal threonine (partial sensor sequence)
- effect of the extra threonine on reaction speed [1]: does not have much effect
- effect of the extra threonine on reaction speed [2]: significant increase in the reaction speed

Reference: patent publication US12371676B2, “Circularly permutated haloalkane transferase fusion molecules” (MAX-PLANCK-GESELLSCHAFT ZUR FÖRDERUNG DER WISSENSCHAFTEN E. …, priority 2019, dated 2025)
